Measured values as given in patent US10828301B2, “2,4-pyrimidinediamine compounds and their uses” (Rigel Pharmaceuticals, Inc, priority 2002, dated 2020).

Assays:
[1] = system: cultured human mast cells (CHMC); assay: CHMC low cell density IgE activation: tryptase and LTC4 assays; format: cell-based; conditions: Homo sapiens, Mast cell, Low Density CHMC, anti-IgE activation, tryptase readout; read-out: CHMC anti-IgE Tryptase
Outline: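 Degranulation measured after 30 min anti-IgE challenge at 37° C of CHMC plated at 1000-1500 cells/well following 1 h preincubation. Readouts: LTC4 by ELISA on donor-specific diluted supernatants, and tryptase activity from a 30 min room-temperature substrate reaction.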

[2] = system: cultured human mast cells (CHMC); assay: CHMC low cell density ionomycin activation: tryptase assay; format: cell-based; conditions: Homo sapiens, Mast cell, Low Density CHMC, ionomycin activation, tryptase readout; read-out: CHMC Ionomycin Tryptase

Row | Structure (SMILES) | IC50 [1] [µM] | IC50 [2] [µM]
1 | Fc1cnc(NC(c2ccccc2)c2ccccc2)nc1NC(c1ccccc1)c1ccccc1 [Compound R935005, N2,N4-Bis(diphenylmethyl)-5-fluoro-2,4-pyrimidinediamine] | > 10 | > 10
2 | Fc1cnc(NC(c2ccc(Cl)cc2)c2ccc(Cl)cc2)nc1NC(c1ccc(Cl)cc1)c1ccc(Cl)cc1 [Compound R935006, N2,N4-Bis[di-(4-chlorophenyl)methyl]-5-fluoro-2,4-pyrimidinediamine] | 10 | 9.8
3 | Oc1cccc(Nc2ncc(F)c(NC(c3ccc(Cl)cc3)c3ccc(Cl)cc3)n2)c1 [Compound R935019, 5-Fluoro-N2-(3-hydroxyphenyl)-N4-[di-(4-chlorophenyl)methyl]-2,4-pyrimidinediamine] | 8.8 | > 10
4 | Oc1cccc(Nc2ncc(F)c(NC3c4ccccc4-c4ccccc43)n2)c1 [Compound R935020, N4-(Fluoren-9-yl)-5-fluoro-N2-(3-hydroxyphenyl)-2,4-pyrimidinediamine] | > 10 | > 10
5 | COC(=O)c1cc(Nc2nc(Nc3cccc(O)c3)ncc2Br)cn1C [Compound R935025, 5-Bromo-N2-(3-hydroxyphenyl)-N4-(N-methyl-2-carbomethoxypyrrol-4-yl)-2,4-pyrimidinediamine] | 1.04 | > 10
6 | Nc1nc(Nc2cccc(O)c2)ncc1Br [Compound R935029, 4-Amino-5-bromo-N2-(3-hydroxyphenyl)-2-pyrimidineamine] | 2.83 | > 10
7 | COCCOc1cccc(Nc2ncc(F)c(Nc3cccc(OCCOC)c3)n2)c1 [Compound R935076, N2,N4-Bis[3-(2-methoxyethyl)oxyphenyl]-5-fluoro-2,4-pyrimidinediamine] | 4.15 | > 10
8 | CC(C)c1ccc(O)cc1Nc1ncc(F)c(Nc2cc(O)ccc2C(C)C)n1 [Compound R935077, N2,N4-Bis(5-hydroxy-2-isopropylphenyl)-5-fluoro-2,4-pyrimidinediamine] | > 10 | > 10
9 | CC(C)Oc1ccc(Nc2nc(Nc3ccc(C(C)(C)CO)cc3)ncc2F)cc1 [Compound R935151, 5-Fluoro-N2-[4-(2-hydroxy-1,1-dimethylethyl)phenyl]-N4-(4-isopropoxyphenyl)-2,4-pyrimidinediamine] | 0.479 | > 10
10 | CC(C)(CO)c1ccc(Nc2nc(Nc3ccc(OCCO)cc3)ncc2F)cc1 [Compound R935158, 5-Fluoro-N4-[4-(2-hydroxy-1,1-dimethylethyl)phenyl]-N2-[4-(2-hydroxyethoxy)phenyl]-2,4-pyrimidinediamine] | 0.551 | > 10
11 | CC(C)(CO)c1ccc(Nc2nc(Nc3cccc(OCCO)c3)ncc2F)cc1 [Compound R935161, 5-Fluoro-N4-[4-(2-hydroxy-1,1-dimethylethyl)phenyl]-N2-[3-(2-hydroxyethoxy)phenyl]-2,4-pyrimidinediamine] | 0.277 | > 10
12 | CC(C)Oc1ccc(Nc2ncc(F)c(Nc3ccc(C(C)(C)CO)cc3)n2)cc1 [Compound R935168, 5-Fluoro-N4-[4-(2-hydroxy-1,1-dimethylethyl)phenyl]-N2-(4-isopropoxyphenyl)-2,4-pyrimidinediamine] | 0.488 | 9.48
13 | OCCOc1cccc(Nc2nc(Nc3cccc(O)c3)ncc2F)c1 [Compound R935170, 5-Fluoro-N4-[3-(2-hydroxyethoxy)phenyl]-N2-(3-hydroxyphenyl)-2,4-pyrimidinediamine] | 0.673 | > 10
14 | CCOC(=O)C(C)(C)c1ccc(Nc2nc(Nc3ccc4c(c3)OCCO4)ncc2F)cc1 [Compound R935172, N4-[4-[Ethoxycarbonyl(dimethyl)methyl]phenyl]-N2-(3,4-ethylenedioxyphenyl)-5-fluoro-2,4-pyrimidinediamine] | 1.39 | 6.81
